Laboratory results taken from US20230147962A1, “FIBROBLAST ACTIVATION PROTEIN LIGANDS FOR TARGETED DELIVERY APPLICATIONS” (PHILOCHEM AG, priority 2020, published 2023).
Read-outs that look alike come from different tables or passages of the source.

Target: T1, hFAP (Homo sapiens, UniProt Q12884)
T1 construct: made in house; host or cells: CHO cells, transient gene expression, purified from supernatant
T1 sequence (Q12884 with tags, fused parts or gaps): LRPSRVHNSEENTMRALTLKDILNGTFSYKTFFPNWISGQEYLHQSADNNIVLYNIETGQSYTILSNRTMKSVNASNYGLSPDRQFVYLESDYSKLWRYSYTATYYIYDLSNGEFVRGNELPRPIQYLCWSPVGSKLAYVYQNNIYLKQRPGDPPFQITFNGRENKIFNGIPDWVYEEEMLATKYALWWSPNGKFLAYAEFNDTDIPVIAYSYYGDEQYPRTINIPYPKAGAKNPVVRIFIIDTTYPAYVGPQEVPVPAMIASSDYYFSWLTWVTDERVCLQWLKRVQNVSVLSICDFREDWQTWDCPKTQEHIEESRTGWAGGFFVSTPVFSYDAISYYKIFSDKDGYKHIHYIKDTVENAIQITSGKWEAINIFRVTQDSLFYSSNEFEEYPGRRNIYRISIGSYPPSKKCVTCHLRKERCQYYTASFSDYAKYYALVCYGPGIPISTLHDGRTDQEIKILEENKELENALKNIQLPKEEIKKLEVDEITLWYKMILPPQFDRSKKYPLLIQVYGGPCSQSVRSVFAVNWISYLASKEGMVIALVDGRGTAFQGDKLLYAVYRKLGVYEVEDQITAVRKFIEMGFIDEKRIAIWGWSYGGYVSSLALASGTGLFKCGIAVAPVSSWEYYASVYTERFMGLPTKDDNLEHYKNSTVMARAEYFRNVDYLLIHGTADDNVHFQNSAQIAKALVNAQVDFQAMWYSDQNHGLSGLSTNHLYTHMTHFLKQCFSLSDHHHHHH
Test: In vitro human FAP enzyme IC50 assay (Z-Gly-Pro-AMC substrate)
Format: biochemical
Settings: for hFAP inhibition (in words): FIG. 17, serial dilution from 10^−6 to 10^−11 M; for IC50: 20 nM human FAP, 20 μM substrate, read-out: IC50 hFAP inhibition
Procedure: (§1) Enzymatic activity of human FAP on the Z-Gly-Pro-AMC substrate was measured at room temperature on a microtiter plate reader, monitoring the fluorescence at an excitation wavelength of 360 nm and an emission wavelength of 465 nm. The reaction mixture contained 20 μM substrate, 20 nM human FAP, assay buffer (50 mM Tris, 100 mM NaCl, 1 mM EDTA, pH=7.4) and inhibitor (ranging between 10^−6 and 10^−11 M) in a total volume of 30 μL.
Inhibitor stock solutions (200 mM) were prepared in DMSO. Immediately prior to the commencement of the experiment, the stocks were further diluted to 10^−6 M in the assay buffer, from which 1:2 serial dilutions were prepared. All measurements were done in triplicate.
The reaction mixture contained 20 μM substrate, 20 nM human FAP (constant), assay buffer (50 mM Tris, 100 mM NaCl, 1 mM EDTA, pH=7.4) and inhibitor (serial dilution from 10^−6 to 10^−11 M, 1:2) in a total volume of 20 μL.
as §1, with “human FAP (constant),” for “human FAP,”, “and tested compound (serial dilution from” for “and inhibitor (ranging between”, “10^−6 to” for “10^−6 and”, “10^−11 M, 1:2)” for “10^−11 M)”, “of 20” for “of 30”

[1] = FIG. 5, 30 min preincubation at 37° C.

Compound	IC50 [1] [µM]	other results
COc1ccc2nccc(C(=O)NCC(=O)N3CCC[C@H]3C#N)c2c1 [Conjugate 28, (S)-N-(2-(2-cyanopyrrolidin-1-yl)-2-oxoethyl)-6-methoxyquinoline-4-carboxamide]	–	hFAP inhibition (in words): lower FAP inhibition property compared with Example 2, P4
C[C@H](NC(=O)c1ccnc(CNC(=O)CCC(=O)O)c1)C(=O)N1CC(F)(F)C[C@H]1C#N [Conjugate 29, 4-(((4-(((S)-1-((S)-2-cyano-4,4-difluoropyrrolidin-1-yl)-1-oxopropan-2-yl)carbamoyl)pyridin-2-yl)methyl)amino)-4-oxobutanoic acid]	–	hFAP inhibition (in words): does not inhibit FAP proteolytic activity at the concentrations tested in the assay
N#C[C@@H]1CC(F)(F)CN1C(=O)CNC(=O)c1ccnc2ccc(OCCCN3CCNCC3)cc12 [Conjugate H6, (S)—N-(2-(2-cyano-4,4-difluoropyrrolidin-1-yl)-2-oxoethyl)-6-(3-(piperazin-1-yl)propoxy)quinoline-4-carboxamide]	0.0246	–
N#C[C@@H]1CC(F)(F)CN1C(=O)CNC(=O)c1ccnc2c(N)cccc12 [Conjugate P3, (S)-8-amino-N-(2-(2-cyano-4,4-difluoropyrrolidin-1-yl)-2-oxoethyl)quinoline-4-carboxamide]	0.0202	–
N#C[C@@H]1CC(F)(F)CN1C(=O)CNC(=O)c1ccnc2c(NC(=O)CCC(=O)O)cccc12 [Conjugate P4, (S)-4-((4-((2-(2-cyano-4,4-difluoropyrrolidin-1-yl)-2-oxoethyl)carbamoyl)quinolin-8-yl)amino)-4-oxobutanoic acid]	–	IC50 (FIG. 9, total volume 20 μL): 0.0168 µM
N#C[C@@H]1CC(F)(F)CN1C(=O)CNC(=O)c1ccnc2c(N)cccc12 [ESV6 ligand]	0.0202	–
N#C[C@@H]1CC(F)(F)CN1C(=O)CNC(=O)c1ccnc2ccc(OCCCN3CCNCC3)cc12 [Haberkorn ligand]	0.0246	–
N#C[C@@H]1CC(F)(F)CN1C(=O)CNC(=O)c1ccnc2cc(Nc3ccccc3)ccc12 [compound 24, (S)-N-(2-(2-cyano-4,4-difluoropyrrolidin-1-yl)-2-oxoethyl)-7-(phenylamino)quinoline-4-carboxamide]	–	IC50 (FIG. 9, total volume 20 μL): 0.0335 µM
